US11377469B2, “CD73 inhibitors” (ORIC Pharmaceuticals, Inc., priority 2017, dated 2022)

Target: CD73 (Homo sapiens (Human), UniProt P21589)
Experiment: Biochemical Assay (CD73 inhibition, AMP hydrolysis, Malachite Green readout)
Settings: CD73 0.3208 nM, AMP 15 μM, Tris-HCl pH 7.4, Malachite Green absorbance

Chain of CD73 (P21589 27-574): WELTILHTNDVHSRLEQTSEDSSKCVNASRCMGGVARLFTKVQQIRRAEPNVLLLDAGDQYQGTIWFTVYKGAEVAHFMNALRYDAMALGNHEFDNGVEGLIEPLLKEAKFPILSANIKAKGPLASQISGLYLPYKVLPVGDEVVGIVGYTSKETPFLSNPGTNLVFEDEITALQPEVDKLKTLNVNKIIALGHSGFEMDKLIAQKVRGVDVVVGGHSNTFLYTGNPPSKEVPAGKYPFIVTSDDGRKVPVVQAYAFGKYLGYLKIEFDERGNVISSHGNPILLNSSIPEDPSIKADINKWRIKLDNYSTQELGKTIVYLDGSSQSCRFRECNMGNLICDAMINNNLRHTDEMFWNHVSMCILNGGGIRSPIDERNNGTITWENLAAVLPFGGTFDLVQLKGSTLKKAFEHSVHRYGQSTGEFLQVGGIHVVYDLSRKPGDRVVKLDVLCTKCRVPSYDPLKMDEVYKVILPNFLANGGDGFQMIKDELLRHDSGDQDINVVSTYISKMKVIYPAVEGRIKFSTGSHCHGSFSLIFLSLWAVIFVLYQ

Row | Structure (SMILES) | IC50
1 | COP(=O)(CP(=O)(O)O)OC[C@H]1O[C@@H](n2nnc3c(NC4CCCC4)nc(Cl)nc32)[C@H](O)[C@@H]1O (stereo partly drawn) [Example 106, (((((2R,3S,4R,5R)-5-(5-chloro-7-(cyclopentylamino)-3H-[1,2,3]triazolo[4,5-d]pyrimidin-3-yl)-3,4-dihydroxytetrahydrofuran-2-yl)methoxy)(methoxy)phosphoryl)methyl) phosphonic acid] | ≤ 500 nM
2 | O=P(O)(O)CS(=O)(=O)C[C@H]1O[C@@H](n2ncc3c(NC4CCC4)nc(Cl)nc32)[C@H](O)[C@@H]1O [Example 107, (((((2S,3S,4R,5R)-5-(6-chloro-4-(cyclobutylamino)-1H-pyrazolo[3,4-d]pyrimidin-1-yl)-3,4-dihydroxytetrahydrofuran-2-yl)methyl)sulfonyl)methyl)phosphonic acid] | ≤ 500 nM
3 | O=P(O)(O)CS(=O)(=O)C[C@H]1O[C@@H](n2nnc3c(NC4CCCC4)nc(Cl)nc32)[C@H](O)[C@@H]1O [Example 108, (((((2S,3S,4R,5R)-5-(5-chloro-7-(cyclopentylamino)-3H-[1,2,3]triazolo[4,5-d]pyrimidin-3-yl)-3,4-dihydroxytetrahydrofuran-2-yl)methyl)sulfonyl)methyl)phosphonic acid] | ≤ 500 nM
4 | CN(C[C@H]1O[C@@H](n2ncc3c(NC4CCCC4)nc(Cl)nc32)[C@H](O)[C@@H]1O)C(=O)CP(=O)(O)O [Example 109, (2-((((2R,3S,4R,5R)-5-(6-chloro-4-(cyclopentylamino)-1H-pyrazolo[3,4-d]pyrimidin-1-yl)-3,4-dihydroxytetrahydrofuran-2-yl)methyl)(methyl)amino)-2-oxoethyl)phosphonic acid] | ≤ 500 nM
5 | O=P(O)(O)CS(=O)(=O)C[C@H]1O[C@@H](n2nnc3c(NC4CCC4)nc(Cl)nc32)[C@H](O)[C@@H]1O [Example 110, (((((2S,3S,4R,5R)-5-(5-chloro-7-(cyclobutylamino)-3H-[1,2,3]triazolo[4,5-d]pyrimidin-3-yl)-3,4-dihydroxytetrahydrofuran-2-yl)methyl)sulfonyl)methyl)phosphonic acid] | ≤ 500 nM
6 | O=P(O)(O)CS(=O)(=O)C[C@H]1O[C@@H](n2ncc3c(NCC4CCC4)nc(Cl)nc32)[C@H](O)[C@@H]1O [Example 111, (((((2S,3S,4R,5R)-5-(6-chloro-4-((cyclobutylmethyl)amino)-1H-pyrazolo[3,4-d]pyrimidin-1-yl)-3,4-dihydroxytetrahydrofuran-2-yl)methyl)sulfonyl)methyl)phosphonic acid] | ≤ 500 nM
7 | O=P(O)(O)CS(=O)(=O)C[C@H]1O[C@@H](n2cnc3c(NC4CCCC4)nc(Cl)nc32)[C@H](O)[C@@H]1O [Example 112, (((((2S,3S,4R,5R)-5-(2-chloro-6-(cyclopentylamino)-9H-purin-9-yl)-3,4-dihydroxytetrahydrofuran-2-yl)methyl)sulfonyl)methyl)phosphonic acid] | ≤ 500 nM
8 | O=P(O)(O)CS(=O)(=O)C[C@H]1O[C@@H](n2nnc3c(NCC4CCC4)nc(Cl)nc32)[C@H](O)[C@@H]1O [Example 113, (((((2S,3S,4R,5R)-5-(5-chloro-7-((cyclobutylmethyl)amino)-3H-[1,2,3]triazolo[4,5-d]pyrimidin-3-yl)-3,4-dihydroxytetrahydrofuran-2-yl)methyl)sulfonyl)methyl)phosphonic acid] | ≤ 500 nM
9 | C[C@H](Nc1nc(Cl)nc2c1nnn2[C@@H]1O[C@H](CS(=O)(=O)CP(=O)(O)O)[C@@H](O)[C@H]1O)c1ccc(F)cc1 [Example 114] | ≤ 500 nM
10 | CN(C[C@H]1O[C@@H](n2nnc3c(NC4CCCC4)nc(Cl)nc32)[C@H](O)[C@@H]1O)C(=O)CP(=O)(O)O [Example 115, (2-((((2R,3S,4R,5R)-5-(5-chloro-7-(cyclopentylamino)-3H-[1,2,3]triazolo[4,5-d]pyrimidin-3-yl)-3,4-dihydroxytetrahydrofuran-2-yl)methyl)(methyl)amino)-2-oxoethyl)phosphonic acid] | 500 to 1000 nM
11 | C[C@H](Nc1nc(Cl)nc2c1cnn2[C@@H]1O[C@H](CS(=O)(=O)CP(=O)(O)O)[C@@H](O)[C@H]1O)c1ccc(F)cc1 [Example 116, (((((2S,3S,4R,5R)-5-(6-chloro-4-(((S)-1-(4-fluorophenyl)ethyl)amino)-1H-pyrazolo[3,4-d]pyrimidin-1-yl)-3,4-dihydroxytetrahydrofuran-2-yl)methyl)sulfonyl)methyl)phosphonic acid] | ≤ 500 nM
12 | O=P(O)(O)CS(=O)(=O)C[C@H]1O[C@@H](n2ncc3c(NCc4ccc(F)cc4)nc(Cl)nc32)[C@H](O)[C@@H]1O [Example 117, (((((2S,3S,4R,5R)-5-(6-chloro-4-((4-fluorobenzyl)amino)-1H-pyrazolo[3,4-d]pyrimidin-1-yl)-3,4-dihydroxytetrahydrofuran-2-yl)methyl)sulfonyl)methyl)phosphonic acid] | ≤ 500 nM
13 | O=P(O)(O)CS(=O)(=O)C[C@H]1O[C@@H](n2nnc3c(NCc4ccccc4Cl)nc(Cl)nc32)[C@H](O)[C@@H]1O [Example 118, (((((2S,3S,4R,5R)-5-(5-chloro-7-((2-chlorobenzyl)amino)-3H[1,2,3]triazolo[4,5-d]pyrimidin-3-yl)-3,4-dihydroxytetrahydrofuran-2-yl)methyl)sulfonyl)methyl)phosphonic acid] | ≤ 500 nM
14 | O=P(O)(O)CS(=O)(=O)C[C@H]1O[C@@H](n2nnc3c(NCc4ccc(F)cc4)nc(Cl)nc32)[C@H](O)[C@@H]1O [Example 119] | ≤ 500 nM
15 | O=P(O)(O)CS(=O)(=O)C[C@H]1O[C@@H](n2nnc3c(NCc4ccc(Cl)cc4)nc(Cl)nc32)[C@H](O)[C@@H]1O [Example 120, (((((2S,3S,4R,5R)-5-(5-chloro-7-((4-chlorobenzyl)amino)-3H[1,2,3]triazolo[4,5-d]pyrimidin-3-yl)-3,4-dihydroxytetrahydrofuran-2-yl)methyl)sulfonyl)methyl)phosphonic acid] | ≤ 500 nM
16 | O=P(O)(O)CS(=O)(=O)C[C@H]1O[C@@H](n2nnc3c(NC4Cc5ccccc5C4)nc(Cl)nc32)[C@H](O)[C@@H]1O [Example 121, (((((2S,3S,4R,5R)-5-(5-chloro-7-((2,3-dihydro-1H-inden-2-yl)amino)-3H-[1,2,3]triazolo[4,5-d]pyrimidin-3-yl)-3,4-dihydroxytetrahydrofuran-2-yl)methyl)sulfonyl)methyl)phosphonic acid] | ≤ 500 nM

The next lines start with the values.

Row | IC50 | Structure (SMILES)
17 | ≤ 500 nM | O=P(O)(O)CS(=O)(=O)C[C@H]1O[C@@H](n2nnc3c(NCc4cccc(Cl)c4)nc(Cl)nc32)[C@H](O)[C@@H]1O [Example 122]
18 | ≤ 500 nM | O=P(O)(O)CS(=O)(=O)C[C@H]1O[C@@H](n2ncc3c(N[C@H]4CCc5ccccc54)nc(Cl)nc32)[C@H](O)[C@@H]1O [Example 123, (((((2S,3S,4R,5R)-5-(6-chloro-4-(((S)-2,3-dihydro-1H-inden-1-yl)amino)-1H-pyrazolo[3,4-d]pyrimidin-1-yl)-3,4-dihydroxytetrahydrofuran-2-yl)methyl)sulfonyl)methyl)phosphonic acid]
19 | ≤ 500 nM | O=P(O)(O)COC[C@H]1O[C@@H](n2ncc3c(NCC4CCCC4)nc(Cl)nc32)[C@H](O)[C@@H]1O [Example 124, ((((2R,3S,4R,5R)-5-(6-chloro-4-((cyclopentylmethyl)amino)-1H-pyrazolo[3,4-d]pyrimidin-1-yl)-3,4-dihydroxytetrahydrofuran-2-yl)methoxy)methyl)phosphonic acid]
20 | ≤ 500 nM | O=P(O)(O)CS(=O)(=O)C[C@H]1O[C@@H](n2ncc3c(NC4CCCC4)nc(CO)nc32)[C@H](O)[C@@H]1O [Example 125, (((((2S,3S,4R,5R)-5-(4-(cyclopentylamino)-6-(hydroxymethyl)-1H-pyrazolo[3,4-d]pyrimidin-1-yl)-3,4-dihydroxytetrahydrofuran-2-yl)methyl)sulfonyl)methyl)phosphonic acid]
21 | ≤ 500 nM | O=P(O)(O)CS(=O)(=O)C[C@H]1O[C@@H](n2ncc3c(NC4Cc5ccccc5C4)nc(Cl)nc32)[C@H](O)[C@@H]1O [Example 126, (((((2S,3S,4R,5R)-5-(6-chloro-4-((2,3-dihydro-1H-inden-2-yl)amino)-1H-pyrazolo[3,4-d]pyrimidin-1-yl)-3,4-dihydroxytetrahydrofuran-2-yl)methyl)sulfonyl)methyl)phosphonic acid]
22 | ≤ 500 nM | O=P(O)(O)CS(=O)(=O)C[C@H]1O[C@@H](n2ncc3c(NCc4ccc(Cl)cc4)nc(Cl)nc32)[C@H](O)[C@@H]1O [Example 127, (((((2S,3S,4R,5R)-5-(6-chloro-4-((4-chlorobenzyl)amino)-1H-pyrazolo[3,4-d]pyrimidin-1-yl)-3,4-dihydroxytetrahydrofuran-2-yl)methyl)sulfonyl)methyl)phosphonic acid]
23 | ≤ 500 nM | CC1CCCC1Nc1nc(Cl)nc2c1cnn2[C@@H]1O[C@H](CS(=O)(=O)CP(=O)(O)O)[C@@H](O)[C@H]1O (stereo partly drawn) [Example 128, (((((2S,3S,4R,5R)-5-(6-chloro-4-((2-methylcyclopentyl)amino)-1H-pyrazolo[3,4-d]pyrimidin-1-yl)-3,4-dihydroxytetrahydrofuran-2-yl)methyl)sulfonyl)methyl)phosphonic acid]
24 | ≤ 500 nM | C[C@H](Nc1nc(Cl)nc2c1cnn2[C@@H]1O[C@H](CS(=O)(=O)CP(=O)(O)O)[C@@H](O)[C@H]1O)c1ccccc1Cl [Example 129, (((((2S,3S,4R,5R)-5-(6-chloro-4-(((S)-1-(2-chlorophenyl)ethyl)amino)-1H-pyrazolo[3,4-d]pyrimidin-1-yl)-3,4-dihydroxytetrahydrofuran-2-yl)methyl)sulfonyl)methyl)phosphonic acid]
25 | ≤ 500 nM | O=P(O)(O)CS(=O)(=O)C[C@H]1O[C@@H](n2nnc3c(N[C@H]4CCc5ccccc54)nc(Cl)nc32)[C@H](O)[C@@H]1O [Example 130, (((((2S,3S,4R,5R)-5-(5-chloro-7-(((S)-2,3-dihydro-1H-inden-1-yl)amino)-3H-[1,2,3]triazolo[4,5-d]pyrimidin-3-yl)-3,4-dihydroxytetrahydrofuran-2-yl)methyl)sulfonyl)methyl)phosphonic acid]
26 | > 1000 nM | CC(C)(O)c1nc(NC2CCCC2)c2cnn([C@@H]3O[C@H](COCP(=O)(O)O)[C@@H](O)[C@H]3O)c2n1 [Example 132, ((((2R,3S,4R,5R)-5-(4-(cyclopentylamino)-6-(2-hydroxypropan-2-yl)-1H-pyrazolo[3,4-d]pyrimidin-1-yl)-3,4-dihydroxytetrahydrofuran-2-yl)methoxy)methyl)phosphonic acid]
